Source: article PMC10527105, “Chirality Matters: Fine-Tuning of Novel Monoamine Reuptake Inhibitors Selectivity through Manipulation of Stereochemistry” (Biomolecules, 2023)
Read-outs that look alike come from different tables or passages of the source.

Assays:
Assay type in all cases: cell-based
[1] = molecular target: T1, noradrenaline transporter/SLC6A2 (NET) (Homo sapiens, UniProt P23975); assay: Cellular uptake experiments: [3H]-noradrenaline reuptake inhibition in transporter-expressing HEK293 cells
T1 construct: expressed in transfected cells; host or cells: HEK293
T1 sequence (P23975 whole entry): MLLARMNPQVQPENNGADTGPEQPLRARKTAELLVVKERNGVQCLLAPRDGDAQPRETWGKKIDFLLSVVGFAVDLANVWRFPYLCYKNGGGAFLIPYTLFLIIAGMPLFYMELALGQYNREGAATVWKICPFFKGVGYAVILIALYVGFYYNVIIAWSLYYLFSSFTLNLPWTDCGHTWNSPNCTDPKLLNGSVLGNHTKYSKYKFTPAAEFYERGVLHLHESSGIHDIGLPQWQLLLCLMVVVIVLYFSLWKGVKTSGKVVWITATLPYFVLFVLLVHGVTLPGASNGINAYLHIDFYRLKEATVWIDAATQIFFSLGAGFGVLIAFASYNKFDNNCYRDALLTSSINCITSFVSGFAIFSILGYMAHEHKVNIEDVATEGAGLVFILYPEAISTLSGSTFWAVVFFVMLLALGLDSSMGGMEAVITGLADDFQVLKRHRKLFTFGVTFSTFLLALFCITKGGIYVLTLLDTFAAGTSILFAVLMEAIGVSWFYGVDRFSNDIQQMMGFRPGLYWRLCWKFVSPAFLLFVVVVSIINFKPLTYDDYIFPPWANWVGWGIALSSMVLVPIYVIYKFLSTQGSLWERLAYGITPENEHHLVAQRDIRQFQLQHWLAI
Method: (§1) Cell culture. Human embryonic kidney (HEK) 293 or SK-N-MC (human neuroblastoma) cells were grown in minimum essential medium with Earle’s salts and L-glutamine, 10% heat-inactivated fetal bovine serum, and 50 mg/L gentamicin. Cells were grown in 100- or 60-mm diameter tissue culture dishes (polystyrene, Falcon) at 37 °C under an atmosphere of 5% CO2/95% air. The human dopamine transporter/SLC6A3 (DAT), noradrenaline transporter/SLC6A2 (NET), or human serotonin transporter/SLC6A4 (SERT) cDNA was stably expressed using methods as described previously.
(§2) Cellular uptake experiments. The transporter-expressing HEK293 cells were seeded in poly-D-lysine-coated 24-well plates (1 × 10^5 cells/well) and, one day later, each well was washed with 0.5 mL uptake buffer and incubated with 0.5 mL buffer containing various concentrations of the drugs. Uptake was started by the addition of [^3H]-dopamine, [^3H]-noradrenaline, or [^3H]-serotonin at a final concentration of 1 µM (specific activity 0.14 Ci/mmol) after 5 min of preincubation. After incubation for 2.5 min (SERT-cells: 5 min) at 25 °C, it was stopped by aspirating the uptake buffer and washing each well twice with 1 mL ice-cold buffer. Nonspecific uptake was determined in the presence of 10 µM mazindol (DAT- and NET-cells) or 10 µM clomipramine (SERT-cells). The radioactivity remaining in each well was determined by incubating with 0.4 mL 1% sodium dodecyl sulphate and transferring this solution into scintillation vials containing 3 mL of scintillation cocktail (Ultima Gold MV, Packard, Dovners Grove, IL, USA). The uptake buffer consisted of (mmol/L): 4 Tris–HCl; 6.25 4-(2-hydroxyethyl)-1-piperazineethanesulfonic acid (HEPES); 120 NaCl; 5 KCl; 1.2 CaCl2; 1.2 MgSO4; 5.6 D-glucose; 0.5 ascorbic acid; pH 7.1.

[2] = molecular target: T2, human dopamine transporter/SLC6A3 (DAT) (Homo sapiens, UniProt Q01959); assay: Cellular uptake experiments: [3H]-dopamine reuptake inhibition in transporter-expressing HEK293 cells; settings: for IC50: cells stably expressing DAT, [3H]-dopamine 1 µM, screening cut-off 50 µM; for activity on DAT (reuptake inhibition), in words: at 50 µM
T2 construct: expressed in transfected cells; host or cells: HEK293
T2 sequence (Q01959 whole entry): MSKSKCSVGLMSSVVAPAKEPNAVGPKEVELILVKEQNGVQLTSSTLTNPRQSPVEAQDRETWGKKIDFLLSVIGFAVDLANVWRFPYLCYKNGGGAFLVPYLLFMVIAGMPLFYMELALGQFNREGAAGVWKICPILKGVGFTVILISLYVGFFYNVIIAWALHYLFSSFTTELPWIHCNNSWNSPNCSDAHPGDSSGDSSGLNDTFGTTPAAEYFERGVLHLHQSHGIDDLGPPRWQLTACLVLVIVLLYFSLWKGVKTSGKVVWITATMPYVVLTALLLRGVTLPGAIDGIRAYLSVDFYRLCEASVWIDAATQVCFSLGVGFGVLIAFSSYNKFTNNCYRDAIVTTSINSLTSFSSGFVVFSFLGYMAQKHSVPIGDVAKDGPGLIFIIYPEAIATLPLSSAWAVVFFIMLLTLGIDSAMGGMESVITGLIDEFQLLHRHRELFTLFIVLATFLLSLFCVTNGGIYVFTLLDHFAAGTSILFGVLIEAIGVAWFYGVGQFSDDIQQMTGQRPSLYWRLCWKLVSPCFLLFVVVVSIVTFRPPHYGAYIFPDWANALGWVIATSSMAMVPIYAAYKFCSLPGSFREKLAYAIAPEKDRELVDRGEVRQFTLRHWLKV
Method: as §1, §2

[3] = molecular target: T3, human serotonin transporter/SLC6A4 (SERT) (Homo sapiens, UniProt P31645); assay: Cellular uptake experiments: [3H]-serotonin reuptake inhibition in transporter-expressing HEK293 cells
T3 construct: expressed in transfected cells; host or cells: HEK293
T3 sequence (P31645 whole entry): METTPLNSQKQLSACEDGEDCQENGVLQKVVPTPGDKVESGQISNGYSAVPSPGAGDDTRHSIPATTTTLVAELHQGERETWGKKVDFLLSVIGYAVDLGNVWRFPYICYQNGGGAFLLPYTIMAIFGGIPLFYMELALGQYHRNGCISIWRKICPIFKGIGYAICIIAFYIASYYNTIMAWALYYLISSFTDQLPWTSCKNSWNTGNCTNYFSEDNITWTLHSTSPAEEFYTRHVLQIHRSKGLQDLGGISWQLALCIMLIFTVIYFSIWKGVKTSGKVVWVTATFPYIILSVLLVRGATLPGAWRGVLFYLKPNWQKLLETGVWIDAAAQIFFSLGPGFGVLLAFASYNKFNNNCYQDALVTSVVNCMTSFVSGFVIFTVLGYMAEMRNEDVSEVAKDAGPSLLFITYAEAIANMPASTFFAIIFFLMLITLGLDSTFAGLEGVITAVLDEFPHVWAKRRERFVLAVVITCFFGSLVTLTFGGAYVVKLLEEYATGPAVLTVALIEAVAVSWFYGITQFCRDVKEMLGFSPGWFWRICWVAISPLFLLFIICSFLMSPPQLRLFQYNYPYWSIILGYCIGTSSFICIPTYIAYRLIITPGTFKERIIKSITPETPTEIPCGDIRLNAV
Method: as §1, §2

[4] = read-out: Reuptake Inhibition (IC50 ± SE, µM) NET; cells stably expressing NET; [3H]-noradrenaline 1 µM; screening cut-off 50 µM
[5] = Reuptake Inhibition (IC50 ± SE, µM) DAT
[6] = read-out: Reuptake Inhibition (IC50 ± SE, µM) SERT; cells stably expressing SERT; [3H]-serotonin 1 µM; screening cut-off 50 µM
[7] = Reuptake Inhibition (IC50 ± SE, µM) NET, cells stably expressing NET; [3H]-noradrenaline 1 µM; screening cut-off 50 µM
[8] = Reuptake Inhibition (IC50 ± SE, µM) SERT, cells stably expressing SERT; [3H]-serotonin 1 µM; screening cut-off 50 µM
[9] = cells stably expressing NET; [3H]-noradrenaline 1 µM; screening cut-off 50 µM; read-out: Reuptake Inhibition (IC50 ± SE, µM) NET
[10] = read-out: Reuptake Inhibition (IC50 ± SE, µM) DAT
[11] = cells stably expressing SERT; [3H]-serotonin 1 µM; screening cut-off 50 µM; read-out: Reuptake Inhibition (IC50 ± SE, µM) SERT
[12] = at 50 µM / tested concentration range

## [O-][S+](Cc1cccs1)C(c1ccccc1)c1ccccc1I (stereo not drawn) [Compound 6i, 2-((((2-iodophenyl)(phenyl)methyl)sulfinyl)methyl)thiophene]
[1]; [4]
  IC50: > 50 µM
[2]; [5]
  IC50: 20.3 ± 0.6 µM
[3]; [6]
  IC50: > 50 µM

## [O-][S+](Cc1cccs1)C(c1ccccc1)c1cccc(I)c1 (stereo not drawn) [Compound 6j, 2-((((3-iodophenyl)(phenyl)methyl)sulfinyl)methyl)thiophene]
[1]; [4]
  IC50: > 50 µM
[2]; [5]
  IC50: 17.7 ± 2.2 µM
[3]; [6]
  IC50: > 50 µM

## [O-][S@+](Cc1cccs1)[C@@H](c1ccccc1)c1ccc(I)cc1 [Compound 6k, (R,S)-2-((((4-iodophenyl)(phenyl)methyl)sulfinyl)methyl)thiophene]
[1]; [7]
  IC50: > 50 µM
[2]; [5]
  IC50: 1.1 ± 0.3 µM
[3]; [8]
  IC50: 3.8 ± 0.5 µM

## Cc1ccccc1C(c1ccccc1)[S+]([O-])Cc1cccs1 (stereo not drawn) [Compound 6l, 2-(((phenyl(o-tolyl)methyl)sulfinyl)methyl)thiophene]
[1]; [9]
  IC50: > 50 µM
[2]; [10]
  IC50: > 50 µM
[3]; [11]
  IC50: > 50 µM

## Cc1cccc([C@H](c2ccccc2)[S@+]([O-])Cc2cccs2)c1 [Compound 6m, (R,S)-2-(((phenyl(m-tolyl)methyl)sulfinyl)methyl)thiophene]
[1]; [7]
  IC50: > 50 µM
[2]; [5]
  IC50: > 50 µM
[3]; [8]
  IC50: > 50 µM

## Cc1ccc(C(c2ccccc2)[S+]([O-])Cc2cccs2)cc1 (stereo not drawn) [Compound 6n, 2-(((phenyl(p-tolyl)methyl)sulfinyl)methyl)thiophene]
[1]; [4]
  IC50: > 50 µM
[2]; [10]
  IC50: > 50 µM
[3]; [11]
  IC50: > 50 µM

## [O-][S+](Cc1cccs1)C(c1ccccc1)c1ccccc1C(F)(F)F (stereo not drawn) [Compound 6o, 2-(((phenyl(2-(trifluoromethyl)phenyl)methyl)sulfinyl)methyl)thiophene]
[1]; [7]
  IC50: > 50 µM
[2]; [5]
  IC50: > 50 µM
[3]; [6]
  IC50: > 50 µM

## [O-][S+](Cc1cccs1)C(c1ccccc1)c1cccc(C(F)(F)F)c1 (stereo not drawn) [Compound 6p, 2-(((phenyl(3-(trifluoromethyl)phenyl)methyl)sulfinyl)methyl)thiophene]
[1]; [4]
  IC50: > 50 µM
[2]; [5]
  IC50: 22 ± 1 µM
[3]; [8]
  IC50: > 50 µM

## [O-][S+](Cc1cccs1)C(c1ccccc1)c1ccc(C(F)(F)F)cc1 (stereo not drawn) [Compound 6q, 2-(((phenyl(4-(trifluoromethyl)phenyl)methyl)sulfinyl)methyl)thiophene]
[1]; [4]
  IC50: > 50 µM
[2]; [5]
  IC50: 40 ± 9 µM
[3]; [8]
  IC50: > 50 µM

## COc1ccccc1[C@H](c1ccccc1)[S@@+]([O-])Cc1cccs1 [Compound 6r, (S,S)-2-((((2-methoxyphenyl)(phenyl)methyl)sulfinyl)methyl)thiophene]
[1]; [7]
  IC50: > 50 µM
[2]; [5]
  IC50: > 50 µM
[3]; [8]
  IC50: > 50 µM

## COc1cccc(C(c2ccccc2)[S+]([O-])Cc2cccs2)c1 (stereo not drawn) [Compound 6s, 2-((((3-methoxyphenyl)(phenyl)methyl)sulfinyl)methyl)thiophene]
[1]; [4]
  IC50: > 50 µM
[2]; [5]
  IC50: 5.41 ± 0.99 µM
[3]; [8]
  IC50: 35 ± 3 µM

## COc1ccc([C@@H](c2ccccc2)[S@+]([O-])Cc2cccs2)cc1 [Compound 6t, (R,R)-2-((((4-methoxyphenyl)(phenyl)methyl)sulfinyl)methyl)thiophene]
[1]; [7]
  IC50: > 50 µM
[2]; [5]
  IC50: 17 ± 3 µM
[3]; [8]
  IC50: 11 ± 3 µM

## [O-][S+](Cc1cccs1)C(c1ccc(F)cc1)c1ccc(Cl)cc1 (stereo not drawn) [Compound 6u, 2-((((4-chlorophenyl)(4-fluorophenyl)methyl)sulfinyl)methyl)thiophene]
[1]; [4]
  IC50: > 50 µM
[2]; [5]
  IC50: 12 ± 2 µM
[3]; [6]
  IC50: > 50 µM

## [O-][S@+](Cc1cccs1)[C@@H](c1ccccc1)c1ccccc1F [Compound 7a, (R,S)-2-((((2-fluorophenyl)(phenyl)methyl)sulfinyl)methyl)thiophene]
[1]; [9]
  IC50: > 50 µM
[2]; [10]
  IC50: 8.25 ± 0.16 µM
[3]; [11]
  IC50: > 50 µM

## [O-][S+](Cc1cccs1)C(c1ccccc1)c1cccc(F)c1 (stereo not drawn) [Compound 7b, 2-((((3-fluorophenyl)(phenyl)methyl)sulfinyl)methyl)thiophene]
[1]; [9]
  IC50: > 50 µM
[2]; [10]
  IC50: 2.3 ± 0.2 µM
[3]; [11]
  IC50: > 50 µM

## [O-][S+](Cc1cccs1)C(c1ccccc1)c1ccc(F)cc1 (stereo not drawn) [Compound 7c, 2-((((4-fluorophenyl)(phenyl)methyl)sulfinyl)methyl)thiophene]
[1]; [9]
  IC50: > 50 µM
[2]; [10]
  IC50: 2.1 ± 0.6 µM
[3]; [11]
  IC50: > 50 µM

## [O-][S@+](Cc1cccs1)[C@@H](c1ccccc1)c1ccccc1Cl [Compound 7d, (R,S)-2-((((2-chlorophenyl)(phenyl)methyl)sulfinyl)methyl)thiophene]
[1]; [12]
  activity on NET (reuptake inhibition), in words: did not achieve ≥50% of radioligand displacement
[1]; [9]
  IC50: > 50 µM
[2]
  activity on DAT (reuptake inhibition), in words: did not achieve ≥50% of radioligand displacement
[2]; [10]
  IC50: > 50 µM
[3]; [12]
  activity on SERT (reuptake inhibition), in words: did not achieve ≥50% of radioligand displacement
[3]; [11]
  IC50: > 50 µM

## [O-][S@@+](Cc1cccs1)[C@@H](c1ccccc1)c1cccc(Cl)c1 [Compound 7e, (S,S)-2-((((3-chlorophenyl)(phenyl)methyl)sulfinyl)methyl)thiophene]
[1]; [7]
  IC50: 29 ± 4 µM
[2]; [5]
  IC50: 0.63 ± 0.17 µM
[3]; [8]
  IC50: > 50 µM

## [O-][S@@+](Cc1cccs1)[C@@H](c1ccccc1)c1ccc(Cl)cc1 [Compound 7f, (S,S)-2-((((4-chlorophenyl)(phenyl)methyl)sulfinyl)methyl)thiophene]
[1]; [7]
  IC50: > 50 µM
[2]; [5]
  IC50: 4 ± 1 µM
[3]; [8]
  IC50: > 50 µM

## [O-][S+](Cc1cccs1)C(c1ccccc1)c1ccccc1Br (stereo not drawn) [Compound 7g, 2-((((2-bromophenyl)(phenyl)methyl)sulfinyl)methyl)thiophene]
[1]; [12]
  activity on NET (reuptake inhibition), in words: no effect
[1]; [4]
  IC50: > 50 µM
[2]; [5]
  IC50: > 50 µM
[2]
  activity on DAT (reuptake inhibition), in words: no effect
[3]; [12]
  activity on SERT (reuptake inhibition), in words: no effect
[3]; [6]
  IC50: > 50 µM

## [O-][S+](Cc1cccs1)C(c1ccccc1)c1ccccc1I (stereo not drawn) [Compound 7i, 2-((((2-iodophenyl)(phenyl)methyl)sulfinyl)methyl)thiophene]
[1]; [4]
  IC50: > 50 µM
[2]; [5]
  IC50: 28.4 ± 2.8 µM
[3]; [6]
  IC50: > 50 µM

## [O-][S+](Cc1cccs1)C(c1ccccc1)c1cccc(I)c1 (stereo not drawn) [Compound 7j, 2-((((3-iodophenyl)(phenyl)methyl)sulfinyl)methyl)thiophene]
[1]; [4]
  IC50: > 50 µM
[2]; [5]
  IC50: 1.46 ± 0.06 µM
[3]; [6]
  IC50: > 50 µM

## [O-][S@@+](Cc1cccs1)[C@@H](c1ccccc1)c1ccc(I)cc1 [Compound 7k, (S,S)-2-((((4-iodophenyl)(phenyl)methyl)sulfinyl)methyl)thiophene]
[1]; [7]
  IC50: > 50 µM
[2]; [5]
  IC50: > 50 µM
[3]; [8]
  IC50: > 50 µM

## Cc1ccccc1C(c1ccccc1)[S+]([O-])Cc1cccs1 (stereo not drawn) [Compound 7l, 2-(((phenyl(o-tolyl)methyl)sulfinyl)methyl)thiophene]
[1]; [9]
  IC50: > 50 µM
[2]; [10]
  IC50: 3.8 ± 0.5 µM
[3]; [11]
  IC50: > 50 µM

## Cc1cccc([C@H](c2ccccc2)[S@@+]([O-])Cc2cccs2)c1 [Compound 7m, (S,S)-2-(((phenyl(m-tolyl)methyl)sulfinyl)methyl)thiophene]
[1]; [7]
  IC50: 49 ± 3 µM
[2]; [5]
  IC50: 1.2 ± 0.09 µM
[3]; [8]
  IC50: > 50 µM

## Cc1ccc([C@H](c2ccccc2)[S@@+]([O-])Cc2cccs2)cc1 [Compound 7n, (S,S)-2-(((phenyl(p-tolyl)methyl)sulfinyl)methyl)thiophene]
[1]; [7]
  IC50: > 50 µM
[2]; [10]
  IC50: 1.63 ± 0.1 µM
[3]; [11]
  IC50: > 50 µM

## [O-][S+](Cc1cccs1)C(c1ccccc1)c1ccccc1C(F)(F)F (stereo not drawn) [Compound 7o, 2-(((phenyl(2-(trifluoromethyl)phenyl)methyl)sulfinyl)methyl)thiophene]
[1]; [7]
  IC50: > 50 µM
[2]; [5]
  IC50: > 50 µM
[3]; [6]
  IC50: > 50 µM

## [O-][S+](Cc1cccs1)C(c1ccccc1)c1cccc(C(F)(F)F)c1 (stereo not drawn) [Compound 7p, 2-(((phenyl(3-(trifluoromethyl)phenyl)methyl)sulfinyl)methyl)thiophene]
[1]; [4]
  IC50: > 50 µM
[2]; [5]
  IC50: 10 ± 1 µM
[3]; [8]
  IC50: > 50 µM

## [O-][S+](Cc1cccs1)C(c1ccccc1)c1ccc(C(F)(F)F)cc1 (stereo not drawn) [Compound 7q, 2-(((phenyl(4-(trifluoromethyl)phenyl)methyl)sulfinyl)methyl)thiophene]
[1]; [4]
  IC50: > 50 µM
[2]; [5]
  IC50: 24 ± 1 µM
[3]; [8]
  IC50: > 50 µM
